Patent US10941157B2, “Pesticidal compositions and uses thereof” (Gilead Apollo, LLC, priority 2015, dated 2021)
Values after ≈ are worked out from the molar mass of the structure shown. Like-named read-outs stand apart in the source and are kept apart here.

Key:
[1] = test system: Botrtyis cinerea (Bc); assay: In vitro pathogen growth inhibition assay, Bc; format: cell-based; conditions: 48 h
Summary of the method: (§1)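 Spores in 17% V8 liquid medium, or 1.5 mm Rs mycelial plugs in ¼ PDB, incubated with compound; final concentration checked by OD600 for precipitation. OD readings at 24 and 48 h, blank-subtracted, plus visual ratings; value is concentration giving ≥90% growth inhibition.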

[2] = test system: Collectotrichum graminicola (Cg); assay: In vitro pathogen growth inhibition assay, Cg; format: cell-based; conditions: 48 h
Summary of the method: as §1

[3] = test system: Diplodia maydis (Dm); assay: In vitro pathogen growth inhibition assay, Dm; format: cell-based; conditions: Stenocarpella maydis, 48 h
Summary of the method: as §1

[4] = test system: Fusarium moniliforme (Fm); assay: In vitro pathogen growth inhibition assay, Fm; format: cell-based; conditions: Fusarium verticillioides
Summary of the method: as §1

[5] = test system: Fusarium virguliforme (Fv); assay: In vitro pathogen growth inhibition assay, Fv; format: cell-based
Summary of the method: as §1

[6] = test system: Phytophthora capsici (Pc); assay: In vitro pathogen growth inhibition assay, Pc; format: cell-based; conditions: 48 h
Summary of the method: as §1

[7] = test system: Rhizoctonia solani (Rs); assay: In vitro pathogen growth inhibition assay, Rs (mycelial plugs); format: cell-based; conditions: Rhizoctonia solani, 48 h, mycelial plugs
Summary of the method: as §1

[8] = test system: Septoria tritici (St); assay: In vitro pathogen growth inhibition assay, St; format: cell-based; conditions: Zymoseptoria tritici, 48 h
Summary of the method: as §1

[9] = test system: Blumeria graminis f. sp. hordei; assay: Foliar protection test for barley powdery mildew control; format: in vivo; conditions: foliar spray on Hordeum vulgare cv. Perry, inoculated 24 hours after treatment, evaluated 7 days later
Summary of the method: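 Six-day-old barley (cv. Perry) sprayed to wetness on both leaf sides; 24 h later inoculated by shaking spores from infected stock plants. Kept at 20 to 22° C, 70% relative humidity; mildew colonization assessed 7 days later.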

[10] = test system: Sphaerotheca fuliginea; assay: Foliar protection for cucumber powdery mildew control; format: in vivo; conditions: foliar spray on Cucumis sativus cv. Straight Eight, inoculated 24 hours after treatment, evaluated 7 days later
Protocol: Plants (Cucumis sativus cv. Straight Eight) were grown for 10 days in 2.5-inch square pots containing Metromix 200 medium amended with fertilizer. For propagation, plants were maintained in a growth chamber at conditions of 23 to 27° C., 16 hour light cycle, ambient humidity, and with sub-irrigation as needed. After inoculation with the pathogen of Sphaerotheca fuliginea, plants were kept at conditions of 23 to 27° C., 16 hour light cycle, 60% relative humidity, and with sub-irrigation as needed to facilitate infection and disease development. […] An atomizer was used for applying the solution onto both sides of the leaves until thoroughly wetted. […] At 24 hours after treatment, the plants were moved to a cooler chamber and inoculated by shaking well-colonized, untreated stock plants above the treated plants. This allowed producing a settling cloud of spores and resulting in uniform infection. Inoculated plants were kept near other sporulating stock plants to allow for infection of newly emerging leaves. Efficacy was evaluated in 7 days later by examining leaves for colonization and growth of mildew. Table 5 lists the results of cucumber powdery mildew control at a compound concentration of 10 ppm or lower.

[11] = test system: Mycosphaerella graminicola (synthetic Septoria tritici); assay: Foliar protection test for wheat septoria leaf blotch control; format: in vivo; conditions: foliar spray on Triticum aestivum cv. WinterHawk, inoculated 1 hour after treatment, evaluated 16 days later
[12] = test system: Fusarium graminearum; format: in vivo; conditions: spray on flowering Triticum aestivum cv. Samson, inoculated 24 hours after treatment, evaluated 14 days later
[13] = test system: Puccinia triticina; assay: Foliar protection test for wheat leaf rust control; format: in vivo; conditions: foliar application to wheat (Triticum aestivum cv. Winterhawk), evaluated 10 days later
[14] = test system: Phakopsora pachyrhizi; assay: Foliar protection test for Asian soybean rust control; format: in vivo; conditions: foliar application to soybean (Glycine max AG4832), percent disease area evaluated 14 days later
[15] = ≥90% inhibition, 48 hours vs 2% DMSO control, read-out: Compound Concentration (ppm) sufficient for ≥90% inhibition of growth, Bc
[16] = ≥90% inhibition, 48 hours vs 2% DMSO control, read-out: Compound Concentration (ppm) sufficient for ≥90% inhibition of growth, Cg
[17] = ≥90% inhibition, 48 hours vs 2% DMSO control, read-out: Compound Concentration (ppm) sufficient for ≥90% inhibition of growth, Dm
[18] = ≥90% inhibition, 48 hours vs 2% DMSO control, read-out: Compound Concentration (ppm) sufficient for ≥90% inhibition of growth, Fm
[19] = ≥90% inhibition, 48 hours vs 2% DMSO control, read-out: Compound Concentration (ppm) sufficient for ≥90% inhibition of growth, Fv
[20] = ≥90% inhibition, 48 hours vs 2% DMSO control, read-out: Compound Concentration (ppm) sufficient for ≥90% inhibition of growth, Pc
[21] = ≥90% inhibition, 48 hours vs 2% DMSO control, read-out: Compound Concentration (ppm) sufficient for ≥90% inhibition of growth, Rs
[22] = ≥90% inhibition, 48 hours vs 2% DMSO control, read-out: Compound Concentration (ppm) sufficient for ≥90% inhibition of growth, St
[23] = ≥90% growth inhibition, 48 hours, vs 2% DMSO control, read-out: Compound Concentration (ppm) sufficient for ≥90% inhibition of Bc
[24] = ≥90% growth inhibition, 48 hours, vs 2% DMSO control, read-out: Compound Concentration (ppm) sufficient for ≥90% inhibition of Cg
[25] = ≥90% growth inhibition, 48 hours, vs 2% DMSO control, read-out: Compound Concentration (ppm) sufficient for ≥90% inhibition of Dm
[26] = ≥90% growth inhibition, 48 hours, vs 2% DMSO control, read-out: Compound Concentration (ppm) sufficient for ≥90% inhibition of Fm
[27] = ≥90% growth inhibition, 48 hours, vs 2% DMSO control, read-out: Compound Concentration (ppm) sufficient for ≥90% inhibition of Fv
[28] = ≥90% growth inhibition, 48 hours, vs 2% DMSO control, read-out: Compound Concentration (ppm) sufficient for ≥90% inhibition of Pc
[29] = ≥90% growth inhibition, 48 hours, vs 2% DMSO control, read-out: Compound Concentration (ppm) sufficient for ≥90% inhibition of Rs
[30] = ≥90% growth inhibition, 48 hours, vs 2% DMSO control, read-out: Compound Concentration (ppm) sufficient for ≥90% inhibition of St

Row | Compound | IC90 [1, 15] | IC90 [2, 16] | IC90 [3, 17] | IC90 [4, 18] | IC90 [5, 19] | IC90 [6, 20] | IC90 [7, 21] | IC90 [8, 22] | Barley Powdery Mildew Control at a compound concentration of 10 ppm or lower [9] | Cucumber Powdery Mildew Control at a compound concentration of 10 ppm or lower [10] | Septoria Leaf Blotch Control at a compound concentration of 25 ppm or lower [11] | Wheat Fusarium Head Blight Control at a compound concentration of 25 ppm or lower [12] | Wheat Leaf Rust Control at a compound concentration of 10 ppm or lower [13] | Asian Soybean Rust Control at a compound concentration of 25 ppm or lower [14] | IC90 [1, 23] | IC90 [2, 24] | IC90 [3, 25] | IC90 [4, 26] | IC90 [5, 27] | IC90 [6, 28] | further results
1 | COCCCO[C@@H](Cn1c(=O)n([C@H](C)C(=O)NC(C)C)c(=O)c2c(C)c(-n3nccn3)sc21)c1cc(F)ccc1OC [Compound I-094, (R)-2-(1-((R)-2-(5-fluoro-2-methoxyphenyl)-2-(3-methoxypropoxy)ethyl)-5-methyl-2,4-dioxo-6-(2H-1,2,3-triazol-2-yl)-1,4-dihydrothieno[2,3-d]pyrimidin-3 (2H)-yl)-N-isopropylpropanamide] | 0.08 µg/mL (≈ 0.133 µM) | 0.08 µg/mL (≈ 0.133 µM) | > 0.4 µg/mL | 0.08 µg/mL (≈ 0.133 µM) | 0.08 µg/mL (≈ 0.133 µM) | > 50 µg/mL | 0.08 µg/mL (≈ 0.133 µM) | ≥ 10 µg/mL | AA (≥85% control of barley powdery mildew) | AA (≥85% control of cucumber powdery mildew) | A (from 70% to 84% control of wheat septoria leaf blotch) | A (from 70% to 84% control of wheat fusarium head blight) | C (from 25 to 49% control of wheat leaf rust) | C (from 25 to 49% control of Asian soybean rust) |  |  |  |  |  |  | 
2 | COc1ccc(F)cc1[C@H](Cn1c(=O)n([C@@H](C)C(=O)NC(C)C)c(=O)c2c(C)c(-n3nccn3)sc21)OCCO [Compound I-096, (S)-2-(1-((R)-2-(5-fluoro-2-methoxyphenyl)-2-(2-hydroxyethoxy)ethyl)-5-methyl-2,4-dioxo-6-(2H-1,2,3-triazol-2-yl)-1,4-dihydrothieno[2,3-d]pyrimidin-3 (2H)-yl)-N-isopropylpropanamide] | 2 µg/mL (≈ 3.48 µM) | 0.08 µg/mL (≈ 0.139 µM) | 0.4 µg/mL (≈ 0.696 µM) | 0.08 µg/mL (≈ 0.139 µM) | 2 µg/mL (≈ 3.48 µM) | 2 µg/mL (≈ 3.48 µM) | 0.08 µg/mL (≈ 0.139 µM) | ≥ 2 µg/mL | B (from 50 to 69% control of barley powdery mildew) | AA (≥85% control of cucumber powdery mildew) | B (from 50 to 69% control of wheat septoria leaf blotch) | D (<25% control of wheat fusarium head blight) | A (from 70% to 84% control of wheat leaf rust) | A (from 70% to 84% control of Asian soybean rust) |  |  |  |  |  |  | 
3 | COCCO[C@@H](Cn1c(=O)n([C@H](C)C(=O)NC(C)C)c(=O)c2c(C)c(-n3nccn3)sc21)c1cc(F)ccc1OC [Compound I-171, (R)-2-(1-((R)-2-(5-fluoro-2-methoxyphenyl)-2-(2-methoxyethoxy)ethyl)-5-methyl-2,4-dioxo-6-(2H-1,2,3-triazol-2-yl)-1,4-dihydrothieno[2,3-d]pyrimidin-3 (2H)-yl)-N-isopropylpropanamide] |  |  |  |  |  |  |  |  | AA (≥85% control of barley powdery mildew) | AA (≥85% control of cucumber powdery mildew) | AA (≥85% control of wheat septoria leaf blotch) | C (from 25 to 49% control of wheat fusarium head blight) | B (from 50 to 69% control of wheat leaf rust) | A (from 70% to 84% control of Asian soybean rust) | 0.08 µg/mL (≈ 0.136 µM) | 0.08 µg/mL (≈ 0.136 µM) | 0.08 µg/mL (≈ 0.136 µM) | 0.08 µg/mL (≈ 0.136 µM) | ≥ 0.4 µg/mL | ≥ 10 µg/mL | IC90 [7, 29]: 0.08 µg/mL (≈ 0.136 µM); IC90 [8, 30]: ≥ 2 µg/mL
4 | CCOC(=O)c1sc2c(c1C)c(=O)n(C(C)(C)C(=O)NC(C)C)c(=O)n2C[C@H](OCCO)c1cc(F)ccc1OC [Compound I-184, (R)-ethyl-1-(2-(5-fluoro-2-methoxyphenyl)-2-(2-hydroxyethoxy)ethyl)-3-(1-(isopropylamino)-2-methyl-1-oxopropan-2-yl)-5-methyl-2,4-dioxo-1,2,3,4-tetrahydrothieno[2,3-d]pyrimidine-6-carboxylate] |  |  |  |  |  |  |  |  | A (from 70% to 84% control of barley powdery mildew) | AA (≥85% control of cucumber powdery mildew) | C (from 25 to 49% control of wheat septoria leaf blotch) | A (from 70% to 84% control of wheat fusarium head blight) | AA (≥85% control of wheat leaf rust) | B (from 50 to 69% control of Asian soybean rust) | 2 µg/mL (≈ 3.37 µM) | 0.4 µg/mL (≈ 0.674 µM) | 0.4 µg/mL (≈ 0.674 µM) | 0.08 µg/mL (≈ 0.135 µM) | 2 µg/mL (≈ 3.37 µM) | 50 µg/mL (≈ 84.2 µM) | IC90 [7, 29]: 0.08 µg/mL (≈ 0.135 µM); IC90 [8, 30]: > 50 µg/mL
